Entries after “also recorded” stand apart in the source; their conditions may differ.
Key:
[1] = tested on: human umbilical vein endothelial cells (HUVEC); test: Inhibition of tube formation in human endothelial cells on Matrigel; format: cell-based; conditions: for inhibition at 0.5 µg/mL: 0.5 μg/ml; for inhibition at 1 µg/mL: 1.0 μg/ml
Description: In order to determine the inhibitory effect of the isocoumarin derivatives against the angiogenesis, in vitro, endothelial cells, HUVEC (human umbilical vein endothelial cell) are selected. Under a specific culture condition, endothelial cells are migrated and differentiated into capillary tubes. Similar to the angiogenesis in vivo, the tube formation assay may be a good model to determine the influence of the isocoumarin derivatives on angiogenesis.
Various concentrations of the two isocoumarin derivatives are added to endothelial cells to monitor under a microscope whether the isocoumarin derivatives inhibited the differentiation of endothelial cells into capillary tubes. From this experiment, the two isocoumarin derivatives are found to inhibit the angiogenesis in concentration-dependent manners. […] However, the differentiation of HUVEC into a capillary tube is inhibited by 6,8-dihydroxy-4-acetyl-isocoumarin down to the concentration of as low as 0.2 μg/ml.
To determine the inhibitory effect of the two compounds obtained in Example 1 on the angiogenesis in vitro, human umbilical vein endothelial cells (HUVEC) were used as a model on the basis that they are migrated and differentiated into capillary tubes on Matrigel HUVEC was cultured in a gelatin-coated culture flask with an M199 medium supplemented with 20% FBS, 2 ng/ml bFGF and 100 μg/ml heparin at 37° C. incubator in a humidified atmosphere containing 5% CO2. The cultured HUVEC were treated with trypsin/EDTA to make a single cell suspension, the cells were plated on Matrigel coated 96-well plates with an M199 medium supplemented with 20% FBS, 2 ng/ml bFGF and 100 μg/ml heparin) at a density of 2×10^4 cells/well. The two compounds obtained in Example 1 were independently added at various concentrations into the wells and the plate was incubated for 18-48 hours in a CO2 incubator. The formation of capillary-like tube was monitored under a microscope during the incubation. The cells in the well containing vehicle (DMSO) became to be robuster and longer hollow tube networks as incubation time went on, but the tubes in the wells containing samples were broken and shortened. The inhibitory activity against tube formation was compared with control by measuring the length of the capillary tubes formed.

[2] = tested on: chorioallantoic membranes at 4.5-day old chick embryo; test: Chorioallantoic membrane (CAM) assay, inhibition of angiogenesis in vivo; conditions: positive eggs/used eggs × 100%
Procedure: Chorioallantoic membrane (CAM) assay was used to measure whether the two isocoumarin derivatives are effective to inhibit angiogenesis in vivo. Fertilized chick eggs were kept in a humidified incubator at 37° C. After 3 days incubation, egg albumin were removed with hypodermic needle to allow CAM and yolk sac to drop away from the shell membrane. On day 3.5, the shell was punched out and removed to be a circular window and the shell membrane was removed. For testing of angiogenesis inhibition, a pieces of thermanox coverslip was coated with various concentration of the isocoumarin derivatives. The thermanox coverslip was placed on the chorioallantoic membranes at 4.5-day old chick embryo. After 2 days incubation at 37° C., 10% fat emulsion was injected into chorioallantois and observed blood vessel formation during an embryogenesis or development procedure. As a positive control, retinoic acid was used and non-treated coverslip for negative control.
Chorioallantoic membrane (CAM) assay was used to measure whether the two compounds obtained in Example 1 are effective to inhibit angiogenesis in vivo. Fertilized chick eggs were kept in a humidified incubator at 37° C. After 3 days incubation, about 2 ml of egg albumin were removed with hypodermic needle to allow CAM and yolk sac to drop away from the shell membrane. On day 3.5, the shell was punched out and removed to be a circular window and the shell membrane was removed. For testing of angiogenesis inhibition, a pieces of thermanox coverslip was coated with the isocoumarin derivatives dissolved in ethanol at concentration of 1, 5 and 10 μg/coverslip and the ethanol was evaporated. The thermanox coverslip were placed on the chorioallantoic membranes at 4.5-day old chick embryo. After 2 days incubation at 37° C., 1-2 ml of 10% fat emulsion was injected into chorioallantois and observed blood vessel formation during an embryogenesis or development procedure under a microscope. As a positive control, 1 μg/egg of retinoic acid was used and a negative control was non-treated. coverslip.

HUVEC = test: Cytotoxicity to HUVEC; format: cell-based, human; conditions: same concentrations as in the angiogenesis inhibition
[3] = Acute toxicity test with rat; conditions: in vivo, 300 mg/kg; for Death and clinical symptoms / Toxic signs in weight change, serologic test, serobiochemical test, corpse examination: po; for LD50: rat, SD-rats, single oral administration, read-out: lethal dose (LD50)
Procedure: Specific pathogen-free (SPF) SD-rats (six weeks old) were used for the test of acute toxicity. Suspensions of the compounds of formulae 2 and 3 in 0.5% methyl cellulose were orally administered once at a dose of 300 mg/kg/10 ml to the rats. After the administration, the animals were observed as to their death, clinical symptoms and weight change, and serological and serobiochemically tested. An autopsy was made over the rats with the naked eye to observe whether their abdominal and thoracic organs were damaged. […] The compounds tested caused no toxic changes rats over the rats to the dose of 300 mg/lkg and thus, found to be safe compounds with a lethal dose (LD50) of at least 300 mg/kg when being administered via an oral route.

[4] = Homo sapiens, length of capillary tubes vs control, read-out: Inhibitory activity (%) against tube formation

SMILES: CC(O)c1coc(=O)c2c(O)cc(O)cc12 (centres unmarked) [6,8-dihydroxy-4-(1-hydroxyethyl)-isocoumarin]
- Lowest concentration still inhibiting differentiation of HUVEC into capillary tubes [1]: 4 µg/mL
- inhibition at 0.5 µg/mL [1, 4]: 0%
- inhibition at 1 µg/mL [1, 4]: 0%
- inhibition at 4 µg/mL ([1]; Homo sapiens, 4 μg/ml, length of capillary tubes vs control, read-out: Inhibitory activity (%) against tube formation): 60%
- inhibition at 10 µg/mL ([1]; Homo sapiens, 10 μg/ml, length of capillary tubes vs control, read-out: Inhibitory activity (%) against tube formation): 100%
- Inhibition rate (%) ([2]; 1 μg/egg): 27.3%
- Inhibition rate (%) ([2]; 5 μg/egg): 66.7%
- Inhibition rate (%) ([2]; 10 μg/egg): 83.3%
- Inhibition rate (%) ([2]; 10 μg/egg, listed as 6,8-dihydroxy-4-(1-hydroxyetyl)-isocoumarin): 78.6%
- Cytotoxicity to HUVEC (HUVEC): did not show cytotoxicity
- Death and clinical symptoms [3]: Neither sudden death nor noticeable clinical symptoms were detected
- Toxic signs in weight change, serologic test, serobiochemical test, corpse examination [3]: no toxic signs were observed
- LD50 [3]: ≥ 300 mg/kg

SMILES: CC(=O)c1coc(=O)c2c(O)cc(O)cc12 [6,8-dihydroxy-4-acetyl-isocoumarin]
- Lowest concentration still inhibiting differentiation of HUVEC into capillary tubes [1]: 0.2 µg/mL
- inhibition at 0.05 µg/mL ([1]; Homo sapiens, 0.05 μg/ml, length of capillary tubes vs control, read-out: Inhibitory activity (%) against tube formation): 0%
- inhibition at 0.2 µg/mL ([1]; Homo sapiens, 0.2 μg/ml, length of capillary tubes vs control, read-out: Inhibitory activity (%) against tube formation): 50%
- inhibition at 0.5 µg/mL [1, 4]: 85%
- inhibition at 1 µg/mL [1, 4]: 100%
- Inhibition rate (%) ([2]; 1 μg/egg): 50.0%
- Inhibition rate (%) ([2]; 5 μg/egg): 83.3%
- Inhibition rate (%) ([2]; 10 μg/egg): 93.3%
- Cytotoxicity to HUVEC (HUVEC): no cytotoxicity; also recorded: did not show cytotoxicity
- Death and clinical symptoms [3]: Neither sudden death nor noticeable clinical symptoms were detected
- Toxic signs in weight change, serologic test, serobiochemical test, corpse examination [3]: no toxic signs were observed
- LD50 [3]: ≥ 300 mg/kg

SMILES: CC1=C(/C=C/C(C)=C/C=C/C(C)=C/C(=O)O)C(C)(C)CCC1 [retinoic acid, reference compound]
- Inhibition rate (%) ([2]; 1 μg/egg): 79.2%

From patent publication US6451846B1, “Isocoumarin derivatives inhibiting angiogenesis” (Korea Research Institute of Bioscience and Biotechnology, priority 1999, dated 2002)
